Measured values from patent US20090076067A1, “PHARMACEUTICAL COMPOSITION COMPRISING AZARHODACYANINE COMPOUND AS ACTIVE INGREDIENT” (priority 2005, published 2009).

Key:
[1] = test system: Plasmodium berghei NK 65 strain; experiment: animal or person; format: in vivo; details: for Survival days (mean survival days, treatment group minus control group) / Recovery Rate (suppression): 4 days; for Recovery Rate (suppression): P. berghei infected ICR mice; for Acute toxicity in treated mice: 25 mg/kg/day dose
Source text: For a test to evaluate therapeutic effect of the compound, 4-day suppressive test which is commonly used for in vivo test to evaluate activity of anti-malaria compound was used. In this experiment, rodent malaria protozoa (Plasmodium berghei NK 65 strain) were used. The infected blood was collected from 5-weeks age (SPF) ICR strain male mouse which were infected intraperitoneally and successively cultured. From the caudal vein of the infected mouse, blood was collected to calculate infection rate. After confirming that infection rate was adequately elevated (10% to 20% infection), the malaria infected blood was collected from the heart of the mouse. The infection rate and count of the red blood cells (cells/mL) were calculated. The infected red blood cell was diluted with PBS buffer to achieve […] protozoa per 0.2 mL dose. The infected cells were injected to the caudal vein of uninfected mouse (ICR strain, male, 5-weeks age) to cause infection. Five mice were made into one group, and the test compound was administered in predefined concentration. From 2 hours after infection, the compound was administered every 24 hours for straight 4 days.
The compound of the invention to be used in this test was dissolved in saline (Otsuka Pharmaceutical Co., Ltd.) to obtain test solution of predefined concentration. When the compound was not dissolved in saline, it was dissolved in SSV (saline containing 0.5% sodium=carboxymethyl cellulose, 0.5% benzyl alcohol, 0.4% Tween 80) to prepare test solution. For the control group (non-treatment group), only saline (Otsuka) was administered. Positive controls S-1 to S-5 were dissolved in saline (Otsuka) or SSV in predetermined concentration to prepare test solution. When the compound was not dissolved in saline, it was dissolved in SSV. After measuring weight of each mouse, the dose for each mouse was calculated to achieve 5.0 to 40 mg concentration for weight1 kg.
Five mice were made into one group, and the test compound was administered intraperitoneally at predefined concentration. From 2 hours after infection, the compound was administered every 24 hours for straight 4 days. Subsequent to the 24 hours after last treatment, blood was collected from the tail of the mouse to prepare thin layer smear in order to count malaria protozoa infection in the treatment group and the control group under microscope. The mice showing maximum value and minimum value were excluded from the average calculation (average was calculated for three mice), to determine malaria protozoa infection rate (Parasitemia).
Using malaria protozoa infection rate thus calculated, recovery rate obtained from the test compound (suppression) was determined.
Recovery rate: suppression(%)=(b−a)/b×100 a: Protozoa infection rate in the treatment group b: Protozoa infection rate in the control group Mean survival days: MSD(day)=c−d c: Average days from the initial treatment (date of malaria infection) to the date of death for the treatment group (5 mice) d: Average days from the date of malaria infection to the date of death for the non-treatment (control) group (5 mice) […]
Tables 5 to 7 illustrate the recovery rate (%) and survival days (day) of malaria infected mice treated with intraperitoneal injection of the test compound and the control compound at predefined concentration. The meaning of symbols in the table is as follows.

[2] = test system: Plasmodium Falciparum k1 strain; experiment: Chloroquine-resistant tropical malaria protozoa proliferation inhibition screening test; format: cell-based; details: chloroquine-resistant K1 strain; 3H-hypoxanthine uptake
Experimental: In this experiment, Plasmodium Falciparum k1 strain protozoa were used. The medium used in the experiment was filter-sterilized RPMI-1640 medium. To the medium human serum was added to achieve 5% concentration. The protozoa was cultured under condition of O2 concentration 3%, CO2 concentration 4%, N2 concentration 93%, and temperature 37° C.
The cultured malaria infected red blood cells were collected by centrifugation, diluted with non-infected red blood cells, to achieve initial infection rate 0.15%. The hematocrit was 2.5%.
To each well in a 96-well culture plate, 200 μL malaria infected culture was added, and either test solution containing test compound at predefined concentration or DMSO having no test compound was added. Each test solution was prepared in duplicate. After 48 hours culture under 37° C., hypoxanthine labeled with radioactive tritium (^3H) of 0.5 μCi was added to each well. After culturing under same condition for 24 hours, the product was collected on a glass fiber filter and washed. The intensity of radiation was measured by Beta plate liquid scintillation counter (Wallac Inc.), to determine malaria protozoa infection rate in test compound samples and control samples.
Using the malaria protozoa infection rate, the proliferation inhibition rate was calculated according to the following equation to determine 50% proliferation inhibition concentration (EC50).
Proliferation inhibition rate(%)={1−(b−a)/(c−a)}×100
a: initial infection rate b: infection rate of test compound solution c: infection rate of the control

[3] = test system: Rat-derived L6 cells (rat skeletal myoblast cell); experiment: Rat L6 cell proliferation inhibition test; format: cell-based; details: Table 1, 72 hours, Alamar Blue
Experimental: Rat-derived L6 cells (rat skeletal myoblast cell) were used for this test. […] The sample was cultured under CO2 concentration 5% and temperature 37° C. Either the composition of the invention or control was dissolved into DMSO, to prepare test solutions having predefined concentration.
The samples were precultured until logarithmic growth phase was reached. Then the culture was transferred to each well in a 96-well culture plate, and either test solution containing test compound at predefined concentration or DSMO without compound was added. The test solution was duplicated.
The plate was cultured in an incubator for 72 hours, to examine proliferation inhibition activity. The activity was examined as follows. Alamar Blue water solution 10 μL was added to each well, and culture was continued for 2 hours. Next, the culture plate was mounted on a fluorescence microplate reader (Spectramax Gemeni XS; Molecular Devices Corporation, U.S.), and irradiated with excitation wavelength 536 nm to determine fluorescence at 588 nm. The survival rate of L6 cells in the test solution sample and control sample was calculated.
Proliferation inhibition rate(%)={(C−A)/(B−A)}×100
A: Initial cell count B: Cell count in control after 3 days C: Cell count in test solution after 3 days

[4] = Plasmodium berghei, ip, 96 h, read-out: Recovery Rate (suppression)
[5] = dose 25 mg/kg/d intraperitoneally
[6] = dose 5.0 mg/kg/d intraperitoneally

CCN1C(=O)/C(=C2\C=Cc3ccccc3N2C)S/C1=N\c1cccc[n+]1C [Compound A-14]
inhibition in vivo at 10 mg/kg/day [1, 4]: 64.5%

CCN1C(=O)/C(=C2\C=CC=CN2C)S/C1=N\c1cc[n+](C)c2cc(Cl)ccc12 [Compound A-15]
inhibition in vivo at 25 mg/kg/day [1, 4]: 60.3% | Survival days (mean survival days, treatment group minus control group) [1, 5]: 2.0 days

CCn1c(=O)/c(=C2\C=CC=CN2C)s/c1=C1\S/C(=N\c2sc3cc(Cl)ccc3[n+]2C)N(c2ccccc2)C1=O [Compound B-11]
inhibition in vivo at 25 mg/kg/day [1, 4]: 82.7%

CCn1c(=O)/c(=C2\C=CC=CN2C)s/c1=C1\S/C(=N\c2scc(-c3ccc(Cl)cc3)[n+]2C)N(c2ccccc2)C1=O [Compound B-13]
inhibition in vivo at 25 mg/kg/day [1, 4]: 95.6%

CCn1c(=O)/c(=C2\C=CC=CN2C)s/c1=C1\S/C(=N\c2sc3cc(Cl)ccc3[n+]2C)N(Cc2ccccc2)C1=O [Compound B-16]
inhibition in vivo at 20 mg/kg/day [1, 4]: 97.4%

CCn1c(=O)/c(=C2\C=CC=CN2C)s/c1=C1\S/C(=N\c2sc3cc(Cl)ccc3[n+]2C)N(c2ccc(OC)cc2)C1=O [Compound B-17]
inhibition in vivo at 25 mg/kg/day [1, 4]: 73.1% | Survival days (mean survival days, treatment group minus control group) [1, 5]: 6.8 days

CCn1c(=O)/c(=c2\nc3c(o2)=CC=CN3C)s/c1=C1\S/C(=N\c2sc3cc(Cl)ccc3[n+]2C)N(Cc2ccccc2)C1=O [Compound B-18]
Survival days (mean survival days, treatment group minus control group) [1, 5]: 7.0 days | Recovery Rate (suppression) [1, 5]: 22.39%

CCN1C(=O)/C(=c2/s/c(=C3/C=CC=CN3C)c(=O)n2CC)S/C1=N\c1scc[n+]1C [Compound B-19]
EC50 P. falciparum K1 [2]: 0.0166 µg/mL | EC50 cytotoxicity L6 [3]: 27.92 µg/mL

CCN1C(=O)/C(=c2/s/c(=c3/nc4c(o3)=CC=CN4C)c(=O)n2CC)S/C1=N\c1scc[n+]1C [Compound B-20]
EC50 P. falciparum K1 [2]: 0.017 µg/mL | Survival days (mean survival days, treatment group minus control group) [1, 5]: 6.3 days | Recovery Rate (suppression) [1, 5]: 56.1% | EC50 cytotoxicity L6 [3]: 69.34 µg/mL

CCn1c(=O)/c(=C2\C=CC=CN2C)s/c1=C1\S/C(=N\c2scc[n+]2C)N(Cc2ccccc2)C1=O [Compound B-21]
Survival days (mean survival days, treatment group minus control group) [1, 5]: 7.0 days | Recovery Rate (suppression) [1, 5]: 80.4%

CCn1c(=O)/c(=C2\SCCN2C)s/c1=C1\S/C(=N\c2scc[n+]2C)N(Cc2ccccc2)C1=O [Compound B-23]
Survival days (mean survival days, treatment group minus control group) [1, 5]: 7.0 days | Recovery Rate (suppression) [1, 5]: 85.1%

CCn1c(=O)/c(=C2\SCCN2C)s/c1=C1\S/C(=N\c2sc3cc(Cl)ccc3[n+]2C)N(c2ccc(OC)cc2)C1=O [Compound B-26]
Survival days (mean survival days, treatment group minus control group) [1, 5]: 2.0 days | Recovery Rate (suppression) [1, 5]: 64.3%

CCN1C(=O)/C(=c2/s/c(=C3/SCCN3C)c(=O)n2CC)S/C1=N\c1scc[n+]1C [Compound B-27]
Survival days (mean survival days, treatment group minus control group) [1, 5]: 2.0 days | Recovery Rate (suppression) [1, 5]: 55.4%

CCN1C(=O)/C(=c2/s/c(=C3/SCCN3C)c(=O)n2CC)S/C1=N\c1sc2ccccc2[n+]1C [Compound B-31]
Survival days (mean survival days, treatment group minus control group) [1, 5]: 1.7 days | Recovery Rate (suppression) [1, 5]: 90.6%

C=CCN1C(=O)/C(=c2/s/c(=C3/C=CC=CN3C)c(=O)n2CC)S/C1=N\c1sc2cc(Cl)ccc2[n+]1C [Compound B-38]
Recovery Rate (suppression) [1, 5]: 95.7%

C=CCN1C(=O)/C(=c2/s/c(=C3/C=CC=CN3C)c(=O)n2CC)S/C1=N\c1scc[n+]1C [Compound B-40]
EC50 cytotoxicity L6 [3]: 27.38 µg/mL

C=CCN1C(=O)/C(=c2/s/c(=C3/SCCN3C)c(=O)n2CC)S/C1=N\c1scc[n+]1C [Compound B-41]
Survival days (mean survival days, treatment group minus control group) [1, 5]: 1.3 days | Recovery Rate (suppression) [1, 5]: 58.5%

CCN1C(=O)/C(=C/C=C2\Sc3ccccc3N2C)S/C1=N\c1sc2cc(Cl)ccc2[n+]1C [Compound C-2]
EC50 P. falciparum K1 [2]: 0.02495 µg/mL | Recovery Rate (suppression) [1, 6]: 32.1% | EC50 cytotoxicity L6 [3]: 11.33 µg/mL

CCN1C(=O)/C(=C/C=C2\Sc3ccccc3N2C)S/C1=N\c1c(O)ccc[n+]1C [Compound C-3]
Recovery Rate (suppression) [1, 6]: 43.9%

CCN1C(=O)/C(=C/C=C2\Sc3ccccc3N2C)S/C1=N\c1scc(-c2ccc(Cl)cc2)[n+]1C [Compound C-4]
inhibition in vivo at 5 mg/kg/day [1, 4]: 37.9%

CCn1c(=O)/c(=C2\Sc3ccccc3N2C)s/c1=C\c1cccc[n+]1CC [Compound S-1, reference compound]
inhibition in vivo at 10 mg/kg/day [1, 4]: 30% | Toxicity noted [1, 5]: toxic

C=CCn1c(=O)/c(=C2\Sc3ccccc3N2C)s/c1=C\c1cccc[n+]1C [Compound S-2, reference compound]
Acute toxicity in treated mice [1]: caused death | inhibition in vivo at 10 mg/kg/day [1, 4]: 27%

CCn1c(=O)/c(=C2\Sc3ccc4ccccc4c3N2C)s/c1=C\c1cccc[n+]1C [Compound S-4, reference compound]
Acute toxicity in treated mice [1]: caused death | inhibition in vivo at 5 mg/kg/day [1, 4]: 17.1% | inhibition in vivo at 10 mg/kg/day [1, 4]: 36% | Toxicity noted [1, 5]: toxic

CCn1c(=O)/c(=c2/s/c(=C3/Sc4ccccc4N3C)c(=O)n2CC)s/c1=C\c1sc2ccccc2[n+]1C [Compound S-5, reference compound]
inhibition in vivo at 5 mg/kg/day [1, 4]: 41%

C=CCn1c(=O)/c(=C2\C=CC=CN2C)s/c1=c1\s/c(=C\c2cccc[n+]2C)n(CC)c1=O [Compound S-6, reference compound]
inhibition in vivo at 50 mg/kg/day [1, 4]: 25.9% | Survival days (mean survival days, treatment group minus control group) ([1]; dose 50 mg/kg/d intraperitoneally): 0 days

C=C[C@H]1C[N@@]2CC[C@H]1C[C@H]2[C@H](O)c1ccnc2ccc(OC)cc12 [Quinine, reference compound]
inhibition in vivo at 10 mg/kg/day [1, 4]: 18.6% | Survival days (mean survival days, treatment group minus control group) ([1]; dose 10 mg/kg/d intraperitoneally): 1.0 days
